US11254686B1 (Corvus Pharmaceuticals, Inc., priority 2017, dated 2022)

What was measured:
adenosine A2A receptor = adenosine A2A receptor (Homo sapiens (Human), UniProt P29274); assay: Adenosine receptor activity assay (Table 1), A2A activity; format: biochemical; conditions: read-out: Ave A2A cAMP IC50
adenosine A2B receptor = adenosine A2B receptor (Homo sapiens (Human), UniProt P29275); assay: Adenosine receptor activity assay (Table 1), A2B activity; format: biochemical; conditions: for Ratio: A2A activity to A2B activity (A2A/A2B); for IC50: read-out: Ave A2B cAMP IC50
Chain of adenosine A2B receptor (P29275 whole entry): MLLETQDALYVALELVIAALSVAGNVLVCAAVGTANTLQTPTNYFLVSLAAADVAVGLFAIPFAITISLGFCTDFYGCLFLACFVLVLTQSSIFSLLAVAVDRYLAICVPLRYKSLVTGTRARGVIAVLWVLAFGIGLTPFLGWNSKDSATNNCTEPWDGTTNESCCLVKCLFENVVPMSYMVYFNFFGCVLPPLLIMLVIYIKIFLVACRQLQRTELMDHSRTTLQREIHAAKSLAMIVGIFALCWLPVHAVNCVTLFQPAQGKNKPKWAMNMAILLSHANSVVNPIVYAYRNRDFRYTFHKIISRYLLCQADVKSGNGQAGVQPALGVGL

Chain of adenosine A2A receptor (P29274 whole entry): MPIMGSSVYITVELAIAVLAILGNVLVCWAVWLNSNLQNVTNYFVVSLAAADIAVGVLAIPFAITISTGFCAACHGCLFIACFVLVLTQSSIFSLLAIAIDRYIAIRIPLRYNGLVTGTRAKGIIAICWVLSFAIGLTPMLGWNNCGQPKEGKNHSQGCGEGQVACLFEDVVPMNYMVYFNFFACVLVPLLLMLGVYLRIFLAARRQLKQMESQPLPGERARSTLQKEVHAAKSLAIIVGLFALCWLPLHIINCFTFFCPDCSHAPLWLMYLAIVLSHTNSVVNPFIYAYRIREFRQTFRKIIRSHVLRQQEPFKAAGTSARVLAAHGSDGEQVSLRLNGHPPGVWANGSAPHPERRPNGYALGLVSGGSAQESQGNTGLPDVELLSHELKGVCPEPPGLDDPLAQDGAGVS

Compound | IC50 (adenosine A2A receptor) [nM] | Ratio (adenosine A2B receptor) | IC50 (adenosine A2B receptor) [nM]
O=C(c1nc(NCc2cccc(Cl)c2)nc2ccsc12)N1CCCC1 [Example Z120, (2-((3-Chlorobenzyl)amino)thieno[3,2-d]pyrimidin-4-yl)(pyrrolidin-1-yl)methanone] | 100 to 500 | 13.39 | 10 to 50
COCC(Nc1nc(C(=O)N2CC[C@H](O)C2)c2sccc2n1)c1cccnc1 (stereo partly drawn) [Example Z124, ((S)-3-Hydroxypyrrolidin-1-yl)(2-((2-methoxy-1-(pyridin-3-yl)ethyl)amino)thieno[3,2-d]pyrimidin-4-yl)methanone] | > 500 | 2.13 | 100 to 500
COCC(Nc1nc(C(=O)N2CCCC2)c2sccc2n1)c1cccnc1 (stereo not drawn) [Example Z127, (2-((2-Methoxy-1-(pyridin-3-yl)ethyl)amino)thieno[3,2-d]pyrimidin-4-yl)(pyrrolidin-1-yl)methanone] | 100 to 500 |  | 10 to 50
CC1CCN1C(=O)c1nc(N[C@@H](C)c2ccccn2)nc2ccsc12 (stereo partly drawn) [Example Z133, (2-Methylazetidin-1-yl)(2-(((S)-1-(pyridin-2-yl)ethyl)amino)thieno[3,2-d]pyrimidin-4-yl)methanone] | 10 to 50 | 3.85 | 10 to 50
CC(C)(C)OC(=O)N1CCN(C(=O)c2nc(NCc3cncc(F)c3)nc3ccsc23)C1 [Example Z135, tert-Butyl 3-(2-(((5-fluoropyridin-3-yl)methyl)amino)thieno[3,2-d]pyrimidine-4-carbonyl)imidazolidine-1-carboxylate] | > 500 | 3.11 | 100 to 500
COc1cc(F)cc(CNc2nc(C(=O)N3CC(C)(O)C3)c3sccc3n2)c1 [Example Z136, (2-((3-Fluoro-5-methoxybenzyl)amino)thieno[3,2-d]pyrimidin-4-yl)(3-hydroxy-3-methylazetidin-1-yl)methanone] | > 500 | 11.51 | 50 to 100
C[C@H](Nc1nc(C(=O)N2CCN(C(=O)OC(C)(C)C)C2)c2sccc2n1)c1cccnc1 [Example Z140, tert-Butyl (S)-3-(2-((1-(pyridin-3-yl)ethyl)amino)thieno[3,2-d]pyrimidine-4-carbonyl)imidazolidine-1-carboxylate] | > 500 | 1.36 | > 500
NC(=O)c1cncc(CNc2nc(C(=O)N3CCCC3)c3sccc3n2)c1 [Example Z142, 5-(((4-(Pyrrolidine-1-carbonyl)thieno[3,2-d]pyrimidin-2-yl)amino)methyl)nicotinamide] | > 500 | 2.76 | > 500
COCCNC(=O)c1nc(NCc2cncc(F)c2)nc2ccsc12 [Example Z146, 2-(((5-Fluoropyridin-3-yl)methyl)amino)-N-(2-methoxyethyl)thieno[3,2-d]pyrimidine-4-carboxamide] | 100 to 500 |  | 10 to 50
C[C@H](Nc1nc(C(=O)N2CCNC2)c2sccc2n1)c1cccnc1 [Example Z148, (S)-Imidazolidin-1-yl(2-((1-(pyridin-3-yl)ethyl)amino)thieno[3,2-d]pyrimidin-4-yl)methanone] | > 500 | 4.87 | > 500
O=C(c1nc(NCc2cncc(F)c2)nc2ccsc12)N1CCNC1 [Example Z149, (2-(((5-Fluoropyridin-3-yl)methyl)amino)thieno[3,2-d]pyrimidin-4-yl)(imidazolidin-1-yl)methanone] | > 500 | 14.43 | > 500
C[C@H](Nc1nc(C(=O)N[C@H]2CCNC2)c2sccc2n1)c1ccccn1 [Example Z150, 2-(((S)-1-(pyridin-2-yl)ethyl)amino)-N—((S)-pyrrolidin-3-yl)thieno[3,2-d]pyrimidine-4-carboxamide] | > 500 | 7.05 | > 500
C[C@H](Nc1nc(C(=O)NCC2CCN(Cc3ccccc3)CC2)c2sccc2n1)c1ccccn1 [Example Z151, (S)—N-((1-Benzylpiperidin-4-yl)methyl)-2-((1-(pyridin-2-yl)ethyl)amino)thieno[3,2-d]pyrimidine-4-carboxamide] | 100 to 500 |  | 100 to 500
O=C(NC1CCC1)c1nc(NCc2cnccn2)nc2ccsc12 [Example Z154, N-Cyclobutyl-2-((pyrazin-2-ylmethyl)amino)thieno[3,2-d]pyrimidine-4-carboxamide] | 100 to 500 | 4.52 | 50 to 100
O=C(c1nc(NCc2cnccn2)nc2ccsc12)N1CCC1 [Example Z155, Azetidin-1-yl(2-((pyrazin-2-ylmethyl)amino)thieno[3,2-d]pyrimidin-4-yl)methanone] | > 500 | 18.83 | 50 to 100
O=C(c1nc(NCc2cnccn2)nc2ccsc12)N1CC[C@H](O)C1 [Example Z156, (S)-(3-Hydroxypyrrolidin-1-yl)(2-((pyrazin-2-ylmethyl)amino)thieno[3,2-d]pyrimidin-4-yl)methanone] | > 500 | 14.60 | > 500

Compound | IC50 (adenosine A2A receptor) [nM] | Ratio (adenosine A2B receptor) | IC50 (adenosine A2B receptor) [nM]
COCCNC(=O)c1nc(NCc2cnccn2)nc2ccsc12 [Example Z157, N-(2-Methoxyethyl)-2-((pyrazin-2-ylmethyl)amino)thieno[3,2-d]pyrimidine-4-carboxamide] | > 500 | 3.17 | > 500
O=C(c1nc(NCc2cc(F)cc(F)c2)nc2ccsc12)N1CCC1 [Example Z168, Azetidin-1-yl(2-((3,5-difluorobenzyl)amino)thieno[3,2-d]pyrimidin-4-yl)methanone] | 100 to 500 | 36.14 | 10 to 50
CC(C)(C)OC(=O)N1CC(NC(=O)c2nc(NCc3cncc(F)c3)nc3ccsc23)C1 [Example Z178, tert-Butyl 3-(2-(((5-fluoropyridin-3-yl)methyl)amino)thieno[3,2-d]pyrimidine-4-carboxamido)azetidine-1-carboxylate] | 100 to 500 | 3.76 | 100 to 500
C[C@H](Nc1nc(C(=O)NC2CN(C(=O)OC(C)(C)C)C2)c2sccc2n1)c1ccccn1 [Example Z179, tert-Butyl (S)-3-(2-((1-(pyridin-2-yl)ethyl)amino)thieno[3,2-d]pyrimidine-4-carboxamido)azetidine-1-carboxylate] | 50 to 100 | 1.09 | 50 to 100
C[C@H](Nc1nc(C(=O)N[C@@H](C)CO)c2sccc2n1)c1ccccn1 [Example Z181, N—((S)-1-Hydroxypropan-2-yl)-2-(((S)-1-(pyridin-2-yl)ethyl)amino)thieno[3,2-d]pyrimidine-4-carboxamide] | 100 to 500 | 5.43 | 50 to 100
C[C@H](CO)NC(=O)c1nc(N[C@@H](C)c2ccccn2)nc2ccsc12 [Example Z182, N—((R)-1-Hydroxypropan-2-yl)-2-(((S)-1-(pyridin-2-yl)ethyl)amino)thieno[3,2-d]pyrimidine-4-carboxamide] | 100 to 500 | 5.92 | 50 to 100
Nc1cc2nc(NCc3cccnc3)nc(C(=O)N3CCCC3)c2s1 [Example Z186, (6-Amino-2-((pyridin-3-ylmethyl)amino)thieno[3,2-d]pyrimidin-4-yl)(pyrrolidin-1-yl)methanone] | > 500 | 29.35 | 50 to 100
C[C@H](Nc1nc(C(=O)NCC2CCC2)c2sccc2n1)c1ccccn1 [Example Z193, (S)—N-(Cyclobutylmethyl)-2-((1-(pyridin-2-yl)ethyl)amino)thieno[3,2-d]pyrimidine-4-carboxamide] | 50 to 100 | 4.46 | 10 to 50
C[C@H](Nc1nc(C(=O)NC2COC2)c2sccc2n1)c1ccccn1 [Example Z194, (S)—N-(Oxetan-3-yl)-2-((1-(pyridin-2-yl)ethyl)amino)thieno[3,2-d]pyrimidine-4-carboxamide] | 100 to 500 | 5.79 | 10 to 50
C[C@H](Nc1nc(C(=O)N2CC[C@@H](F)C2)c2sc(N)cc2n1)c1cccnc1 [Example Z195, (6-Amino-2-(((S)-1-(pyridin-3-yl)ethyl)amino)thieno[3,2-d]pyrimidin-4-yl)((R)-3-fluoropyrrolidin-1-yl)methanone] | 100 to 500 | 17.59 | 10 to 50
C[C@H](Nc1nc(C(=O)N2CC[C@H](O)C2)c2sc(N)cc2n1)c1cccnc1 [Example Z196, (6-Amino-2-(((S)-1-(pyridin-3-yl)ethyl)amino)thieno[3,2-d]pyrimidin-4-yl)((S)-3-hydroxypyrrolidin-1-yl)methanone] | > 500 | 102.27 | 10 to 50
C[C@H](Nc1nc(C(=O)NCc2cncc(C(F)(F)F)c2)c2sccc2n1)c1ccccn1 [Example Z200, (S)-2-((1-(Pyridin-2-yl)ethyl)amino)-N-((5-(trifluoromethyl)pyridin-3-yl)methyl)thieno[3,2-d]pyrimidine-4-carboxamide] | 100 to 500 | 1.81 | 100 to 500
COCC(Nc1nc(C(=O)NC2CC2)c2sccc2n1)c1cccnc1 (stereo not drawn) [Example Z202, N-Cyclopropyl-2-((2-methoxy-1-(pyridin-3-yl)ethyl)amino)thieno[3,2-d]pyrimidine-4-carboxamide] | 50 to 100 | 3.91 | 10 to 50
C[C@H](Nc1nc(C(=O)N2CCC2)c2sc(N)cc2n1)c1cccnc1 [Example Z203, (S)-(6-Amino-2-((1-(pyridin-3-yl)ethyl)amino)thieno[3,2-d]pyrimidin-4-yl)(azetidin-1-yl)methanone] | 100 to 500 | 33.74 | 10 to 50
C[C@H](Nc1nc(C(=O)N2CC[C@H](F)C2)c2sc(N)cc2n1)c1cccnc1 [Example Z204, (6-Amino-2-(((S)-1-(pyridin-3-yl)ethyl)amino)thieno[3,2-d]pyrimidin-4-yl)((S)-3-fluoropyrrolidin-1-yl)methanone] | 100 to 500 | 13.13 | 10 to 50
